Reference: US9238055B2, “Peptide bone forming peptide 4 for promoting osteogenesis or vascularization and use thereof” (Chonnam National University Hospital, priority 2011, dated 2016)
Where no end group is shown, it is not given here.

System: mesenchymal stem cells
Assay: MTT assay for cytotoxicity
Assay type: cell-based, mouse
Details: at concentrations effective for promoting osteogenic differentiation; FIG. 3
Procedure: At concentrations effective for calcium deposition, BFP 4 was analyzed for cytotoxicity. In this context, MTT ((3-(4,5-Dimethylthiazol-2-yl)-2,5-diphenyltetrazolium bromide, a yellow tetrazole) assay was performed using an MTT Cell Proliferation Assay Kit (Cayman Chemical) according to the instructions of the manufacturer.

## FFKATEVHFRSIRST [BFP 4, Phe-Phe-Lys-Ala-Thr-Glu-Val-His-Phe-Arg-Ser-Ile-Arg-Ser-Thr]
  Cytotoxicity (MTT): no cytotoxicity was detected
